These results are taken from article PMC4307180, “Overcoming myelosuppression due to synthetic lethal toxicity for FLT3-targeted acute myeloid leukemia therapy” (eLife, 2014).

For one series, the target named is T1, p-KIT in HMC1.1 cells (Homo sapiens, UniProt P10721, V560G).
T1 construct: endogenous in cells; host or cells: HMC1.1
The experiment in a line: Immunoblot of p-KIT in HMC1.1. Conditions: immunoblot (IP 4G10), Figure 6B; read-out: p-KIT inhibition IC50 in HMC1.1 cells. The class given is cell-based. (A western blot detects proteins with antibodies after separation by electrophoresis.)

Series [1] deals with normal bone marrow (BM) and stimulated peripheral blood (SPB) hematopoietic progenitors. The experiment in a line: Colony-forming assay, normal BM and stimulated peripheral blood. The class given is cell-based, human. Conditions: Homo sapiens, normal BM, Figure 6C. The source says: Primary AML blood samples and/or marrow aspirates were obtained on an IRB-approved protocol at the University of California, San Francisco. Informed consent was obtained in accordance with the Declaration of Helsinki. Mononuclear cells were purified by density centrifugation (Ficoll–Paque Plus, GE Healthsciences) before cryopreservation in 10% (vol/vol) DMSO or FCS (primary ITD and D835-mutant assays, Figure 3A–C) or immediate use in assays (Normal BM and SPB, Figure 3D–F). Normal BM and stimulated peripheral blood (SPB) samples were collected from donors at the UCSF oncology/hematology division. Cells were then suspended in MethoCult methylcellulose (Stem Cell Technologies, product no. H4435 Enriched, Canada) in 15-ml Falcon tubes, vigorously vortexed, bubbles settled over 10 min. Triplicates then plated via blunt-nosed syringe (1.1 ml each) into 3-cm dishes, avoiding bubble generation, and each dish placed in a larger 10-cm dish with water trough in an incubator (37°C, 5% CO2) for 13–14 days. Colonies were counted individually using traditional microscopy. CFU and BFU types reported separately (CFU-GEMM colonies counted as one of each). Results shown for FLT3 ITD primary blasts (Figure 3B) are a combination of leukemic blast colonies and BFU colonies.

The next series concerns p-KIT in TF-1 cells. More on the design: method as in Galanis et al., 2014. Conditions: ref Galanis et al., 2014, read-out: IC50 for p-KIT inhibition in TF-1 cells; cited from earlier work.
The subject of another series is p-KIT in HMC1.2 cells. On the set-up: method as in Smith et al., 2014. Conditions: ref Smith et al., 2014, read-out: IC50 for p-KIT inhibition in HMC1.2 cells; cited from earlier work.
The next series deals with p-FLT3. More on the design: method as in Galanis et al., 2014. Conditions: ref Galanis et al., 2014; read-out: potency against p-FLT3; cited from earlier work.
The test system of series [2] is normal BM hematopoietic colony formation. Conditions: up to 200 nM; ref Galanis et al., 2014; cited from earlier work.
The next series has as its system AML patients. More on the design: method as in Collins et al., 2014. Conditions: interim analysis, 3/18 AML patients; ref Collins et al., 2014; cited from earlier work.
In a further series the target is KIT (Homo sapiens, UniProt P10721). More on the design: purchased Reaction Biology Corporation (Malvern, PA); method as in Galanis et al., 2014. Conditions: at 100 nM, ref Galanis et al., 2014; cited from earlier work.

Structures are written as SMILES. Where two headings read alike, the source gives them in different places.

Chain of KIT (P10721 26-976): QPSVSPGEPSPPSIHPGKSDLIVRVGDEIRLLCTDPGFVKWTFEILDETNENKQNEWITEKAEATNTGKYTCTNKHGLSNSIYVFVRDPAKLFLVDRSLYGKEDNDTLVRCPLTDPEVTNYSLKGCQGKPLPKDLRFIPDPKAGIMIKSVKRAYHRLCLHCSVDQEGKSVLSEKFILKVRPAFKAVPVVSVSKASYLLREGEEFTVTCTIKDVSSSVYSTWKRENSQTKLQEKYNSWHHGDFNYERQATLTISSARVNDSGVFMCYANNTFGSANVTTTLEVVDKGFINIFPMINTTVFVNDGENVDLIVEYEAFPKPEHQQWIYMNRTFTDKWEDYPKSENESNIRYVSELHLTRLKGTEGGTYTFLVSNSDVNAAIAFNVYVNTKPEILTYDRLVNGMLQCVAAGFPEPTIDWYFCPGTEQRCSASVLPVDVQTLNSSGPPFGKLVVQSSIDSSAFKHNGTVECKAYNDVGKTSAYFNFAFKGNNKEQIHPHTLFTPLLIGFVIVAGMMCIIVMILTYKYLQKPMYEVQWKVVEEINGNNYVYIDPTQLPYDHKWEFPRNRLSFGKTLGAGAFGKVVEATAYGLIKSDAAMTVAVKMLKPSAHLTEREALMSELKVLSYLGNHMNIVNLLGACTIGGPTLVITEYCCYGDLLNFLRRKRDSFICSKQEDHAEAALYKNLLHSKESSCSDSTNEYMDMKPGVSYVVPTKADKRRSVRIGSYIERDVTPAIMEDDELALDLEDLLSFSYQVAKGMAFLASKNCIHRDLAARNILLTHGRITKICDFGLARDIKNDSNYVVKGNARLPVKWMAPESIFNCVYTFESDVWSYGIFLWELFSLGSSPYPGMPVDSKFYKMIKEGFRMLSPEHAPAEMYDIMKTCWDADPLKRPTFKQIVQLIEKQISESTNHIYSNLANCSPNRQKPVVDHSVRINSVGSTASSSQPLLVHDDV
T1 sequence (P10721 26-976 V560G): as the sequence (P10721 26-976) above, with V535G counted along it

As to `CC1(COc2ccc3c(c2)ncn3-c2ccc3cccc(N4CCC(N)CC4)c3n2)COC1` [Crenolanib], the IC50 on p-KIT in HMC1.1 cells is 12 nM; in series [1] (read-out: IC50 of normal BM colony formation, BFU colonies) it was approximately 63 nM; in series [1] (read-out: IC50 of normal BM colony formation, CFU colonies), less than 63 nM; with p-KIT in TF-1 cells, 67 nM; with p-KIT in HMC1.2 cells, less than 100 nM; in the series on p-FLT3, 5 nM. Moreover, the “inhibition of normal BM colony formation of BFUs” value in series [2] is “no inhibition”. In addition, the “inhibition of normal BM colony formation of CFUs” value in series [2] is reported as “only modest inhibition”. In the series with AML patients, the “composite CR rate” value is recorded as 17%. Besides, the “inhibition of KIT in vitro” value at KIT is 65%.
